{"source": "patent US10512651B2", "about": "“Inhibition of MK2 in the treatment of cancer” (STC.UNM, priority 2014, dated 2019)", "key": {"[1]": {"system": "Caco-2 colon cancer cells", "assay": "Caco-2 scratch wound assay (proliferation and migration)", "type": "cell-based", "details": "Caco-2 cells incubated with inhibitor, FIG. 9", "method": "FIG. 9 is a graph showing that MK2 inhibition decreases colon cancer carcinoma cell proliferation. Incubating Caco-2 colon cancer cells with the MK2 inhibitor (MK2a) decreased proliferation and migration in a scratch wound assay."}, "[2]": {"system": "neoplasms in AOM/DSS exposed mice", "assay": "AOM/DSS mouse model of colon cancer, neoplasm number after MK2 inhibitor treatment", "type": "in vivo", "details": "treated three times a week for three weeks; FIG. 10", "method": "FIG. 10 is a graph showing that AOM/DSS exposed mice treated with MK2 inhibitors regresses neoplasms.\nMice: C57Bl/6 mice from Harlan Laboratories and the MK2^−/−tm1Mgl (8) mouse strain were bred under pathogen free conditions. Animal procedures were approved by the UNM IACUC. Azoxymethane (AOM), (Sigma Aldrich, St. Louis, Mo.) was injected […] into 6-8 week old female mice at 12.5 mg/kg. Dextran Sodium Sulfate (DSS), (MP Biomedicals, MW 36,000-50,000) was added to drinking water at 2.5% at days 5 and 26 and at 2.0% at day 47, 2.0% for 5 days sacrificed at day 80. Control mice received PBS IP and no DSS in water. Mouse Colon Supernatants: 8 mg (±0.5 mg) of cleaned colon tissues were incubated in complete RPMI with antibiotics for 12 hours. Supernatants were analyzed for cytokines by Luminex bead array (Millipore, Billerica, Mass.) according to manufacturer's instructions."}}, "data": [{"smiles": "O=C(CCCc1ccc(-c2ccccc2F)cc1)Nc1ccc(O)cc1", "note": "[MK2a inhibitor]", "values": [{"measurement": "migration in a scratch wound assay", "setting": "[1]", "value": "decreased"}, {"measurement": "colon cancer carcinoma cell proliferation", "setting": "[1]; scratch wound assay", "value": "decreased"}, {"measurement": "neoplasms (number) in AOM/DSS exposed mice", "setting": "[2]", "value": "significantly less neoplasms"}]}]}
